This note sets out measurements from patent publication US20040171073A1, “Compounds for modulation of cholesterol transport” (Massachusetts Institute of Technology, priority 2002, published 2004).

The target of assay [1] is T1, SR-BI (Mus musculus, UniProt Q61009).
T1 construct: endogenous in cells; host or cells: Y1-BS1 murine adrenocortical cells (ACTH induced)
T1 sequence (Q61009 1-509): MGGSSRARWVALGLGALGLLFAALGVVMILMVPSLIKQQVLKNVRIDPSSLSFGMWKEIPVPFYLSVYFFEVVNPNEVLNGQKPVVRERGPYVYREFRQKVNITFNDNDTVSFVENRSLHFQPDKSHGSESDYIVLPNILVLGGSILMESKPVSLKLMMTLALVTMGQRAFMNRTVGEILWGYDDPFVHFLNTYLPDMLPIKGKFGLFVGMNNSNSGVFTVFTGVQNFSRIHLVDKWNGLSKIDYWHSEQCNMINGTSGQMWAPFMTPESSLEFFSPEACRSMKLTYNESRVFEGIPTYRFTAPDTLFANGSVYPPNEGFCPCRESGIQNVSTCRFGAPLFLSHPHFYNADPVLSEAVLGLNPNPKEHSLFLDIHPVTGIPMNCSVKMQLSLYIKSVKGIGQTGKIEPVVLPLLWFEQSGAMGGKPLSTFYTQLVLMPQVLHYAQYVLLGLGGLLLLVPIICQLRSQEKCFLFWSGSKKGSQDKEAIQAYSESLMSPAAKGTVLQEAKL
Briefly: Uptake of [3H]CE from [3H]CE-HDL by Y1-BS1 adrenocortical cells. Type of assay: cell-based, murine. The following applies: inhibition, n=2, read-out: (A) EC50 [^3H]CEt HDL uptake (Y1-BS1 cells). An excerpt:
Biol. Chem. 273, 26338-48; Gu, et al. (2000) J. Biol. Chem. 275, 29993-30001; Acton, et al. (1994) J. Biol. Chem. 269, 21003-9; Pitas, et al. (1981) Arteriosclerosis 1, 177-85). LDL receptor deficient Chinese hamster ovary cells that express low levels of endogenous SR-BI, ldlA-7 (Kingsley, et al. (1984) Proc. Nat. Acad. Sci. USA 81, 5454-8), ldlA-7 cells stably transfected to express high levels of murine SR-BI (ldlA[mSR-BI])(Acton, et al., 1996), Y1-BS1 murine adrenocortical cells that express high levels of SR-BI after induction with ACTH (Rigotti, et al. (1996) J. Biol. Chem. 271, 33545-9), monkey kidney BS-C1 cells (Kapoor, et al. (2000) Journal of Cell Biology 150, 975-88) and HeLa cells (Temel, et al. (2002) J Biol Chem 8, 8) were maintained as previously described.
(§1) Cells were pre-incubated with BLTs for 1 hr (or 2.5 hrs for transferrin, EGF and cholera toxin uptake experiments) and all the experiments were performed at 37° C. Detailed characterization of the BLTs and their effects was performed with compounds whose identities and purities were confirmed by LC-MS.
(§2) Assays for the uptake of lipids from DiI-HDL and [^3]CE-HDL, efflux of [^3H]cholesterol from labeled cells, and ^125I-HDL binding were performed as described by Acton et al. Science (1996) January 26;271(5248):518-20; Gu, et al. J Biol. Chem. (2000) September 29;275(39):29993-30001; and Ji, et al., J. Biol. Chem. (1997) 272, 20982-5. In some experiments, values were normalized so that the 100% of control represents activity in the absence of compounds and 0% represents activity determined in the presence of a 40-fold excess of unlabeled HDL or, for Y1-BS1 cells, in the presence of a 1:500 dilution of the KKB-1 blocking antibody (Gu, et al., 2000, generous gift from Karen Kozarsky). The amounts of cell-associated [^3H]cholesteryl ether are expressed as the equivalent amount of [^3H]CE-HDL protein (ng) to permit direct comparison of the relative amounts of ^125I-HDL binding and [^3H]CE uptake.

In assay [2] the test system is BSC-1 cells. The format is cell-based, monkey. The following applies: BLTs at ICCE95, 50 micromolar BLT-1, 3 hrs.
The target in assay [3] is T2, murine SR-BI (Mus musculus, UniProt Q61009).
T2 construct: expressed in transfected cells; host or cells: ldlA-7 (LDL receptor deficient Chinese hamster ovary cells)
T2 sequence (Q61009 1-509): T1 sequence (Q61009 1-509)
Briefly: 125I-HDL binding to ldlA[mSR-BI] cells. As to the method: as §1, §2
It was initially expected that the BLTs would function by inhibiting HDL binding to SR-BI. However, when cells were incubated with a sub-saturating concentration of either [^3H]CE-HDL or ^125I-labeled HDL (^125I-HDL) (10 μg protein/ml) and increasing amounts of compound (FIG. 5), the decreases in [^3H]CE uptake (solid lines, no symbols, data from FIG. 2B) and [3H]cholesterol efflux (dashed lines, data from FIG. 2C) were accompanied by corresponding increases in ^125I-HDL binding (solid lines, square symbols). The concentration dependence of ^125I-HDL binding was determined in the presence or absence of BLTs at their ICCE95 concentrations (FIG. 6 and Table II).

For assay [4], the system named is ldlA[mSR-BI] cells. Briefly: Distribution of actin and tubulin networks, fluorescence microscopy. The conditions noted are these: BLTs at ICCE95; 50 micromolar BLT-1, 3 hrs. Type of assay: cell-based, Chinese hamster.
For assay [5], the system named is HeLa cells. Nature of the assay: Receptor mediated endocytosis of labeled transferrin and EGF, fluorescence microscopy. Type of assay: cell-based. The conditions noted are these: BLTs at ICCE95, 50 micromolar BLT-1, 3 hrs.
Assay [6] has as its target T2, murine SR-BI. Briefly: Uptake of DiI from DiI-HDL by ldlA[mSR-BI] cells (high throughput screen and concentration dependence). The format is cell-based.
The test system of assay [7] is BSC-1 cells. The format is cell-based, monkey.
Assay [8] concerns the target T2, murine SR-BI. Nature of the assay: Uptake of [3H]cholesteryl ether from [3H]CE-HDL by ldlA[mSR-BI] cells. The format is cell-based. As to the method:
as §1, §2

The target in assay [9] is T2, murine SR-BI. Nature of the assay: Efflux of [3H]cholesterol from ldlA[mSR-BI] cells to HDL. The format is cell-based. The following applies: inhibition of efflux to HDL, mean ± SD, n=3. As for the experimental part: as §1, §2
In addition to mediating selective lipid uptake from HDL, SR-BI can facilitate the efflux of unesterified cholesterol from cells to HDL particles (Jian, et al. (1998) J Biol Chem 273, 5599-606. Ji, et al. (1997) J. Biol. Chem. 272, 20982-5). To determine if the BLTs could inhibit this SR-BI-mediated lipid transport activity, cells were labeled with [^3H]cholesterol and its efflux to unlabeled HDL measured in the presence or absence of the BLTs. (FIG. 2C, table II). Cells were incubated for 3 hrs in the absence (top panels) or presence (bottom panels) of 50 micromolar BLT-1 (MIT 9952-53) and epifluorescence light microscopy was used to monitor the following cellular activities: clathrin-dependent endocytosis of fluorescently labeled transferrin (A,B; HeLa cells) and EGF (C,D; HeLa cells); clathrin-independent endocytosis of fluorescently labeled cholera toxin (E, F; BSC-1 cells), and transport of the temperature sensitive fluorescent membrane protein VSVG^ts045-EGFP from the ER to the cell surface (G,H; BSC-1 cells). In addition, the intracellular distributions of the actin cytoskeleton (visualized with rhodamine labeled phalloidin, I,J; ldlA-[mSRBI] cells) and the tubulin network (visualized with fluorescently labeled antibodies specific to y-tubulin, K,L; BSC-1 cells) were determined. BLT-1 (MIT 9952-53) and the other BLTs (not shown) had no effects on any of these cellular properties or activities.

The target in assay [10] is T2, murine SR-BI. Briefly: Rate of 125I-HDL dissociation from cells. The conditions noted are these: dissociation of 125I-HDL from ldlA[mSR-BI] cells in presence of BLT; no BLT control 0.11; n=2; read-out: (B) Binding Parameters Koff (converted). As for the experimental part:
The rates of HDL dissociation from cells were determined by incubation of the cells with ^125I-HDL (10 μg protein/ml, 2 hrs, 37° C.) with and without BLTs. The medium was then either replaced with the same medium in which the ^125I-HDL was substituted by a 40-fold excess of unlabeled HDL or a 40-fold excess of unlabeled HDL was added to the labeled incubation medium. The amounts of cell-associated ^125I-HDL were then determined as a function of time. The two methods gave similar results.

Entries after “also recorded” stand apart in the source; their conditions may differ.

As to `CCCCCCC1CCC/C1=N\NC(N)=S` (stereo not shown) [MIT 9952-53], the EC50 in [1] amounted to 380 nM; in [3] (ldlA[mSR-BI] cells, enhancement of HDL binding, 10 μg protein/ml HDL, mean ± SD, n=3, read-out: (A) EC50 ^1nI-HDL binding), 88 ± 50 nM; in assay [6] (ldlA[mSR-BI] cells, inhibition, mean ± SD, n=3) it was 60 ± 40 nM; in assay [8] (inhibition, mean ± SD, n=6 (n=5 where footnoted), read-out: (A) EC50 [^3H]CEt HDL uptake), 110 ± 80 nM; in assay [9], 150 ± 90 nM. In [2], the “Uptake of labeled cholera toxin (clathrin-independent endocytosis)” value was “no effects”. The “(B) Binding Parameters Bmax” value in assay [3] (125I-HDL binding sites in presence of BLT at its ICCE95, no BLT control 100.0 ± 18.4) is 95.8 ± 10.1%. Besides, in assay [3] (ldlA[mSR-BI] cells), the “Effect on HDL binding to SR-BI” value is given as “enhanced”. Besides, in [4], the “Integrity/distribution of actin and tubulin networks” value is listed as “no effects”. Also, in assay [5], the “Uptake and intracellular distribution of labeled transferrin and EGF (clathrin-dependent endocytosis)” value is listed as “no effects”. Further, in assay [6] (Test 1), the “ENDOHDL Test 1” value stood at 0.53. Further, the “ENDOHDL Test 2” value in [6] (Test 2) is given as 0.46. Also, in assay [6] (ldlA[mSR-BI] cells, listed as BLT-1), the “Inhibition of SR-BI-mediated lipid transport / DiI uptake, concentration range in words” value is “low nanomolar concentration range; also recorded: inhibited in the nanomolar range”. In [7], the “Secretory pathway: transport of VSVGts045-EGFP from ER to cell surface” value is listed as “no effects”. The “ICCE95 concentration (inhibits [3H]CE uptake by 95%)” value in [8] was determined as 1 µM. Also, the koff in assay [10] was 0.001 s⁻¹.

In general, EC50 refers to the concentration needed to bring the measured effect to its halfway point. The term koff denotes the first-order rate constant of dissociation.
